Experimental data published in patent publication US20190160021A1, “Substituted Stilbenes as Inhibitors of NF-kappaB and Activators of Nrf2” (STC.UNM, priority 2017, published 2019).

System: Nrf2
Assay: Nrf2-ARE reporter-HepG2 stable cell line luciferase reporter assay for activators of Nrf2
Assay type: cell-based
Settings: Nrf2-ARE reporter-HepG2 cells, from dose-response curves; read-out: EC50, concentration that produced 50% activation of Nrf2
Experimental: A Nrf2-ARE reporter-HepG2 stable cell line (BPS Bioscience, San Diego, Calif.) is grown in a humidified atmosphere at 37° C. in 5% CO295% air. The cells are maintained in MEM medium with Earles balanced salts and L-glutamine supplemented with 10% fetal bovine serum (FBS), 1 mM sodium pyruvate, 1% non-essential amino acids, 100 units/ml penicillin, 100 μg/ml streptomycin, and 400 μg/ml Geneticin. One day prior to treatment, the Nrf2-ARE cells are plated into 24-well cell culture plates at approximately 30% confluency in the above media without Geneticin. The following day, fresh media with or without substituted trans stilbene or sulforaphane is applied to the cells. DMSO concentrations are kept at 0.1%. The cells are again placed in a humidified atmosphere at 37° C. in 5% CO2/95% air for 5 hours. Plate wells are gently washed with phosphate buffered saline (PBS) pH 7.4 and lysed with 1× passive lysis buffer (Promega, Madison, Wis., USA). The subsequent lysates are analyzed with the Luciferase Assay System (Promega) utilizing a GloMax 20/20 luminometer (Promega, Sunnyvale, Calif., USA). The firefly luciferase relative light units are normalized to protein (mg/ml) with BCATM Protein Assay Kit protein (Pierce, Rockford, Ill., USA)

Structure (SMILES)	EC50 [µM]
Oc1ccc(C=Cc2cc(O)cc(O)c2)cc1 [Resveratrol, resveratrol]	5.4
C[S+]([O-])CCCCN=C=S (centres unmarked) [sulforaphane]	1.2

Same assay, conditions: Nrf2-ARE reporter-HepG2 cells, screened at 15 μM

Structure (SMILES)	fold activation (extent of activation) of Nrf2 [fold]
COc1cccc(/C=C/c2ccc(C(F)(F)F)cc2)c1OC [trans stilbene 54, (E)-1,2-Dimethoxy-3-(4-(trifluoromethyl)styryl)benzene]	65.5

System: not given
Assay: not given
Settings: not given

Structure (SMILES)	melting point [°C]
COc1ccccc1/C=C/c1ccccc1F [trans stilbene 10, (E)-1-Fluoro-2-(2-methoxystyryl)benzene]	34 to 35
COc1cccc(/C=C/c2ccc(F)cc2)c1OC [trans stilbene 17, (E)-1-(4-Fluorostyryl)-2,3-dimethoxybenzene]	50 to 51
COc1ccc(OC)c(/C=C/c2ccc(F)cc2)c1 [trans stilbene 18, (E)-2-(4-Fluorostyryl)-1,4-dimethoxybenzene]	58 to 59
Cc1ccc(/C=C/c2ccc(F)c(F)c2)cc1 [trans stilbene 22, (E)-1,2-Difluoro-4-(4-methylstyryl)benzene]	90 to 92
COc1ccc(/C=C/c2cc(F)ccc2F)cc1 [trans stilbene 23, (E)-1,4-Difluoro-2-(4-methoxystyryl)benzene]	109 to 110
Fc1ccc(/C=C/c2ccccc2F)cc1F [trans stilbene 24, (E)-1,2-Difluoro-4-(2-fluorostyryl)benzene]	85 to 86
COc1ccc(/C=C/c2ccc(F)c(F)c2)cc1 [trans stilbene 26, (E)-1,2-Difluoro-4-(4-methoxystyryl)benzene]	73 to 74
Fc1cccc(/C=C/c2ccc(F)c(F)c2)c1 [trans stilbene 30, (E)-1,2-Difluoro-4-(3-fluorostyryl)benzene]	48 to 49
Fc1cccc(/C=C/c2cc(F)ccc2F)c1 [trans stilbene 34, (E)-1,4-Difluoro-2-(3-fluorostyryl)benzene]	73 to 74
Fc1cccc(/C=C/c2ccc(F)cc2F)c1 [trans stilbene 35, (E)-2,4-Difluoro-1-(3-fluorostyryl)benzene]	60 to 61
Fc1ccc(/C=C/c2ccccc2F)c(F)c1 [trans stilbene 36, (E)-2,4-Difluoro-1-(2-fluorostyryl)benzene]	84 to 85
Cc1ccc(/C=C/c2ccc(F)cc2F)cc1 [trans stilbene 37, (E)-2,4-Difluoro-1-(4-methylstyryl)benzene]	72 to 73
Fc1ccc(/C=C/c2cc(F)ccc2F)cc1 [trans stilbene 40, (E)-1,4-Difluoro-2-(4-fluorostyryl)benzene]	76 to 77
COc1cccc(/C=C/c2ccc(C)cc2)c1OC [trans stilbene 48, (E)-1,2-Dimethoxy-3-(4-methylstyryl)benzene]	38 to 40
COc1cccc(/C=C/c2ccccc2OC)c1 [trans stilbene 49, (E)-1-Methoxy-2-(3-methoxystyryl)benzene]	49 to 50
COc1cccc(/C=C/c2cc(OC)ccc2OC)c1 [trans stilbene 50, (E)-1,4-Dimethoxy-2-(3-methoxystyryl)benzene]	48 to 49
COc1cccc(/C=C/c2ccc(C(F)(F)F)cc2)c1OC [trans stilbene 54, (E)-1,2-Dimethoxy-3-(4-(trifluoromethyl)styryl)benzene]	67 to 69
